Laboratory results published in patent US20230139171A1 (SITA Information Networking Computing UK Limited, priority 2019, published 2023).
pIC50: −log10 of the molar value. Like-named read-outs stand apart in the source and are kept apart here.

What was measured:
Assay type in all cases: cell-based
human TLR9 = molecular target: T1, human TLR9 (Homo sapiens, UniProt Q9NR96); assay: TLR9 inhibition reporter assay (HEK-Blue cells, SEAP reporter, ODN2006 stimulation); settings: HEK-Blue cells overexpressing human TLR9, SEAP reporter, ODN2006 5 nM
T1 construct: host or cells: HEK-Blue cells
T1 sequence (Q9NR96 26-1032): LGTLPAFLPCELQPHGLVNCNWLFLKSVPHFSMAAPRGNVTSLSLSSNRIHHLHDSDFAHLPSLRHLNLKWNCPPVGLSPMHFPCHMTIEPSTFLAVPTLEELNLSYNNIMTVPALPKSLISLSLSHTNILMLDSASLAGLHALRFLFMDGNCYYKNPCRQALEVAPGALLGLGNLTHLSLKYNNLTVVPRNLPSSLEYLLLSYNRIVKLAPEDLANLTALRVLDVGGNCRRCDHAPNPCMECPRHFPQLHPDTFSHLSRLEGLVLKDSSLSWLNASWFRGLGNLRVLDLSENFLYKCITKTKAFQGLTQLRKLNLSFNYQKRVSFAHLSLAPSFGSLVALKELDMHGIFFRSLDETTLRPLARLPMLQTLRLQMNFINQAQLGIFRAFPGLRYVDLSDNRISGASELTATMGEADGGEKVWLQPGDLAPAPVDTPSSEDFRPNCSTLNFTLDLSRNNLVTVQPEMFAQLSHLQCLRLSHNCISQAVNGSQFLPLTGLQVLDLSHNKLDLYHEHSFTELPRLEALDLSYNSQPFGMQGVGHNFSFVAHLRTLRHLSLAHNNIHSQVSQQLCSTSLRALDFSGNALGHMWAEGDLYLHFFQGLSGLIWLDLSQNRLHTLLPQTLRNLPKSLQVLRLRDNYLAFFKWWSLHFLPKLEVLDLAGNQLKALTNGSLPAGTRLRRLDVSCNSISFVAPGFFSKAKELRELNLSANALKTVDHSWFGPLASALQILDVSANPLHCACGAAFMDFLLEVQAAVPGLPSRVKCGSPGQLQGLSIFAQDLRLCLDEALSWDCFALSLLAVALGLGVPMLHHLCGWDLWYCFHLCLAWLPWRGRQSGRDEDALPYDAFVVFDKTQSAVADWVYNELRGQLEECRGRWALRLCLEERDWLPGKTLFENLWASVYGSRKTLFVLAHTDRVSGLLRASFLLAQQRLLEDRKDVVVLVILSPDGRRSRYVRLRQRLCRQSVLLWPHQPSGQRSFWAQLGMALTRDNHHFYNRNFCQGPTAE
Description: TLR7/8/9 Inhibition Reporter Assays
HEK-Blue™-cells (Invivogen) overexpressing human TLR7, TLR8 or TLR9 receptors were used for screening inhibitors of these receptors using an inducible SEAP (secreted embryonic alkaline phosphatase) reporter gene under the control of the IFN-β minimal promoter fused to five NF-κB and AP-1-binding sites. Briefly, cells are seeded into Greiner 384 well plates (15000 cells per well for TLR7, 20,000 for TLR8 and 25,000 for TLR9) and then treated with test compounds in DMSO to yield a final dose response concentration range of 0.05 nM-50 μM. After a 30 minute compound pre-treatment at room temperature, the cells are then stimulated with a TLR7 ligand (gardiquimod at a final concentration of 7.5 μM), TLR8 ligand (R848 at a final concentration of 15.9 μM) or TLR9 ligand (ODN2006 at a final concentration of 5 nM) to activate NF-κB and AP-1 which induce the production of SEAP. After a 22 hour incubation at 37° C., 5% CO2, SEAP levels are determined with the addition of HEK-Blue™ Detection reagent (Invivogen), a cell culture medium that allows for detection of SEAP, according to manufacturer's specifications. The percent inhibition is determined as the % reduction in the HEK-Blue signal present in wells treated with agonist plus DMSO alone compared to wells treated with a known inhibitor.

human TLR7 = molecular target: T2, human TLR7 (Homo sapiens, UniProt Q9NYK1); assay: TLR7 inhibition reporter assay (HEK-Blue cells, SEAP reporter, gardiquimod stimulation); settings: gardiquimod 7.5 μM
T2 construct: host or cells: HEK-Blue cells
T2 sequence (Q9NYK1 27-1049): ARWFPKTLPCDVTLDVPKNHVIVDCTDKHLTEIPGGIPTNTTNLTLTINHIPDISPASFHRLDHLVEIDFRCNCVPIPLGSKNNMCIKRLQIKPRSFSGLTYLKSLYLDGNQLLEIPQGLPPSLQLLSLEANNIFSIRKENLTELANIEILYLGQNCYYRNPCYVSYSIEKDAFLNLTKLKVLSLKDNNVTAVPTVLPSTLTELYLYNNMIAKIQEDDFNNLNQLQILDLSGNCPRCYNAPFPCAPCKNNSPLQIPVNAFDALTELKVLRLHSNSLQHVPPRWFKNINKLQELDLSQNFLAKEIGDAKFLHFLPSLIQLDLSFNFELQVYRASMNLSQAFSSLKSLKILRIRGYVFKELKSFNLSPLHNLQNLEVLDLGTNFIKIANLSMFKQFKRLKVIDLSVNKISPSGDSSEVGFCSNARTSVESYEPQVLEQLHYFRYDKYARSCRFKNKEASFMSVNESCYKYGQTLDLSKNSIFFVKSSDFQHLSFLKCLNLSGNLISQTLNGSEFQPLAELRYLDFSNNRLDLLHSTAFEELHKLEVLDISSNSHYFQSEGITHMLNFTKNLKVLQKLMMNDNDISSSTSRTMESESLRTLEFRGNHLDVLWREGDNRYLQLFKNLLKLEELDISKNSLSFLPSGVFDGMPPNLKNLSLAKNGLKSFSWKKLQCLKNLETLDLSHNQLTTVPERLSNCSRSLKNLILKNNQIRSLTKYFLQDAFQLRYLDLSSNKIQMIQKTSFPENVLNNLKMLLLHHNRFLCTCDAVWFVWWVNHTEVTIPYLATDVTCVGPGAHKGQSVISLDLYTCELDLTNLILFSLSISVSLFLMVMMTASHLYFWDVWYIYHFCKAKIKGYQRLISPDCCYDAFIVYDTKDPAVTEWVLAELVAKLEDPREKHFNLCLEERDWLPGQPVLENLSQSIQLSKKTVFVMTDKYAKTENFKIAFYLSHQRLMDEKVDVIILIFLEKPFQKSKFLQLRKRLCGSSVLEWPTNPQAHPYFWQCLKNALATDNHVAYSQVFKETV
How it was run: (§1)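 Compound treatment: 30 min, RT, 0.05 nM–50 μM final. Agonist: TLR7 gardiquimod 7.5 μM; TLR8 R848 15.9 μM; TLR9 ODN2006 5 nM. Incubation 22 h, 37 °C, 5% CO2. Readout SEAP, HEK-Blue Detection.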

human TLR8 = molecular target: T3, human TLR8 (Homo sapiens, UniProt Q9NR97); assay: TLR8 inhibition reporter assay (HEK-Blue cells, SEAP reporter, R848 stimulation); settings: R848 15.9 μM
T3 construct: host or cells: HEK-Blue cells
T3 sequence (Q9NR97 27-1041): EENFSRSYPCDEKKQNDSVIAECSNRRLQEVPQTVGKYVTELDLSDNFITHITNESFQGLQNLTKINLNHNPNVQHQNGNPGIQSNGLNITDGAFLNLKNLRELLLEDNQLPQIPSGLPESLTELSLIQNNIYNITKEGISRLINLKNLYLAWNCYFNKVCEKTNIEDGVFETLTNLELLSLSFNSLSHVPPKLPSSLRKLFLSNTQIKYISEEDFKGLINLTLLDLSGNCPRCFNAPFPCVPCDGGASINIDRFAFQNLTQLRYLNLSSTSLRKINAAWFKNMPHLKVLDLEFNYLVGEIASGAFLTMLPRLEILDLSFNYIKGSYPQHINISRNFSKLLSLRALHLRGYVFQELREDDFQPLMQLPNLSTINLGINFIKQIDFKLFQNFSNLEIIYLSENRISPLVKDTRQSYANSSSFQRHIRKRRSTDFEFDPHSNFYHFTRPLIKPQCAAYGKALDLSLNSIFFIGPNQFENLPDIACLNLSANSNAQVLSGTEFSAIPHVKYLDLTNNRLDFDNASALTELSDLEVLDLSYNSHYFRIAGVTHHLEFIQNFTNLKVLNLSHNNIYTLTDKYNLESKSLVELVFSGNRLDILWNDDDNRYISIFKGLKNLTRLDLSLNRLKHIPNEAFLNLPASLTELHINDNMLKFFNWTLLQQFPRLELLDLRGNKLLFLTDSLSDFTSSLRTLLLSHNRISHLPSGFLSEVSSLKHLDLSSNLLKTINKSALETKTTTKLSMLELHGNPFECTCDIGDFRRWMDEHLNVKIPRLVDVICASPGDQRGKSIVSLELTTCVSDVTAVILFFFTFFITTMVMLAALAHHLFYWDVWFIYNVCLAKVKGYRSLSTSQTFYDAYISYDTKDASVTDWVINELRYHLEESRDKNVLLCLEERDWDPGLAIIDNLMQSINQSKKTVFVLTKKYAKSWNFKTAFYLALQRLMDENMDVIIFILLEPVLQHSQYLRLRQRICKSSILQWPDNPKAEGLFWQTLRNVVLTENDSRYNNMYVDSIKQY
How it was run: as §1

[1] = HEK-Blue cells overexpressing human TLR7, SEAP reporter, read-out: TLR7 IC50
[2] = HEK-Blue cells overexpressing human TLR8, SEAP reporter, read-out: TLR8 IC50

Row | SMILES | pIC50 (human TLR9) | pIC50 (human TLR7; [1]) | pIC50 (human TLR8; [2]) | pIC50 (human TLR7; TLR7 IC50, HEK-Blue cells overexpressing human TLR7, SEAP reporter) | pIC50 (human TLR8; TLR8 IC50, HEK-Blue cells overexpressing human TLR8, SEAP reporter)
1 | COc1cc(-c2c(C(C)C)c3nc(C4CCN(CC(F)(F)F)CC4)sc3n2CC(F)(F)F)cn2ncnc12 [Example 9, 6-isopropyl-5-(8-methoxy-[1,2,4]triazolo[1,5-a]pyridin-6-yl)-4-(2,2,2-trifluoroethyl)-2-(1-(2,2,2-trifluoroethyl)piperidin-4-yl)-4H-pyrrolo[3,2-d]thiazole] | 5.38 |  |  |  | 
2 | Cc1c(-c2[nH]c3sc(CNCC(N)=O)nc3c2C(C)C)cn2ncnc2c1C [Example 402, 2-(((5-(7,8-dimethyl-[1,2,4]triazolo[1,5-a]pyridin-6-yl)-6-isopropyl-4H-pyrrolo[3,2-d]thiazol-2-yl)methyl)amino)acetamide] |  | 7.45 | 6.53 |  | 
3 | Cc1c(-c2[nH]c3sc(CN4CC5(C4)CS(=O)(=O)C5)nc3c2C(C)C)cn2ncnc2c1C [Example 403, 6-((5-(7,8-dimethyl-[1,2,4]triazolo[1,5-a]pyridin-6-yl)-6-isopropyl-4H-pyrrolo[3,2-d]thiazol-2-yl)methyl)-2-thia-6-azaspiro[3.3]heptane 2,2-dioxide] |  |  |  | 7.57 | 6.81
4 | Cc1c(-c2[nH]c3sc(CN4CC5(CCOCC5)C4)nc3c2C(C)C)cn2ncnc2c1C [Example 404, 2-((5-(7,8-dimethyl-[1,2,4]triazolo[1,5-a]pyridin-6-yl)-6-isopropyl-4H-pyrrolo[3,2-d]thiazol-2-yl)methyl)-7-oxa-2-azaspiro[3.5]nonane] |  | 7.36 | 6.91 |  | 
5 | Cc1c(-c2[nH]c3sc(CN4CCNC(=O)C4)nc3c2C(C)C)cn2ncnc2c1C [Example 406, 4-((5-(7,8-dimethyl-[1,2,4]triazolo[1,5-a]pyridin-6-yl)-6-isopropyl-4H-pyrrolo[3,2-d]thiazol-2-yl)methyl) piperazin-2-one] |  | 8.56 | 6.85 |  | 
6 | Cc1c(-c2[nH]c3sc(CN4CC5(COC5)C4)nc3c2C(C)C)cn2ncnc2c1C [Example 408, 6-((5-(7,8-dimethyl-[1,2,4]triazolo[1,5-a]pyridin-6-yl)-6-isopropyl-4H-pyrrolo[3,2-d]thiazol-2-yl)methyl)-2-oxa-6-azaspiro[3.3]heptane] |  | 7.32 | 6.77 |  | 

Now from value to compound, other results behind:

Row | pIC50 (human TLR9) | pIC50 (human TLR7; [1]) | pIC50 (human TLR8; [2]) | SMILES | pIC50 (human TLR7; TLR7 IC50, HEK-Blue cells overexpressing human TLR7, SEAP reporter) | pIC50 (human TLR8; TLR8 IC50, HEK-Blue cells overexpressing human TLR8, SEAP reporter)
7 | 4.72 | 5.85 |  | Cc1cc(-c2[nH]c3sc(N4CCNC[C@H]4C)nc3c2C(C)C)cn2ncnc12 [Example 311, (R)-6-isopropyl-5-(8-methyl-[1,2,4]triazolo[1,5-a]pyridin-6-yl)-2-(2-methylpiperazin-1-yl)-4H-pyrrolo[3,2-d]thiazole] |  | 
8 | 4.60 |  |  | Cc1cc(-c2[nH]c3sc(N4CCN(C5CCC5)C[C@H]4C)nc3c2C(C)C)cn2ncnc12 [Example 362, (R)-2-(4-cyclobutyl-2-methylpiperazin-1-yl)-6-isopropyl-5-(8-methyl-[1,2,4]triazolo[1,5-a]pyridin-6-yl)-4H-pyrrolo[3,2-d]thiazole] |  | 
9 |  | 6.86 | 6.44 | Cc1cc(-c2[nH]c3sc(C(=O)N4CCOCC4)nc3c2C(C)C)cn2ncnc12 [Example 398, (6-isopropyl-5-(8-methyl-[1,2,4]triazolo[1,5-a]pyridin-6-yl)-4H-pyrrolo[3,2-d]thiazol-2-yl)(morpholino)methanone] |  | 
10 |  | 6.90 | 6.88 | Cc1cc(-c2[nH]c3sc(C(=O)NCC4(S(C)(=O)=O)CC4)nc3c2C(C)C)cn2ncnc12 [Example 399, 6-isopropyl-5-(8-methyl-[1,2,4]triazolo[1,5-a]pyridin-6-yl)-N-((1-(methylsulfonyl)cyclopropyl)methyl)-4H-pyrrolo[3,2-d]thiazole-2-carboxamide] |  | 
11 |  | 7.54 | 6.55 | Cc1c(-c2[nH]c3sc(CN4CCOCC4)nc3c2C(C)C)cn2ncnc2c1C [Example 407, 4-((5-(7,8-dimethyl-[1,2,4]triazolo[1,5-a]pyridin-6-yl)-6-isopropyl-4H-pyrrolo[3,2-d]thiazol-2-yl)methyl)morpholine] |  | 
